Active and inactive are the calls of the source. The calls are words filed in the database; no cut-off is given here.
Key:
[1] = biological target: Acetylcholinesterase (Electrophorus electricus) (UniProt O42275); assay: Non competitive inhibition of electric eel AChE using acetylthiocholine as substrate by Lineweaver-Burk plot analysis
Acetylcholinesterase [2] = biological target: T1, Acetylcholinesterase (Electrophorus electricus, UniProt O42275)
Description: Inhibition of electric eel AChE preincubated for 30 mins prior to horseradish peroxidase, H2O2 and DETAPAC addition measured for 20 mins under ROS condition by Muraoka and Miura method

Acetylcholinesterase [3] = biological target: T1, Acetylcholinesterase; remark: listed apart in the source
Description: Inhibition of electric eel AChE using acetylthiocholine as substrate preincubated for 10 mins prior to substrate addition measured every 30 seconds for 30 mins by Ellman's method

[4] = biological target: Acetylcholinesterase (Electrophorus electricus) (UniProt O42275); assay: Ratio of tacrine IC50 to compound IC50 for electric eel AChE
[5] = biological target: Acetylcholinesterase (Electrophorus electricus) (UniProt O42275); assay: Ratio of tacrine IC50 to compound IC50 for electric eel AChE in presence of horseradish peroxidase and H2O2 and DETAPAC

T1 sequence (O42275 whole entry): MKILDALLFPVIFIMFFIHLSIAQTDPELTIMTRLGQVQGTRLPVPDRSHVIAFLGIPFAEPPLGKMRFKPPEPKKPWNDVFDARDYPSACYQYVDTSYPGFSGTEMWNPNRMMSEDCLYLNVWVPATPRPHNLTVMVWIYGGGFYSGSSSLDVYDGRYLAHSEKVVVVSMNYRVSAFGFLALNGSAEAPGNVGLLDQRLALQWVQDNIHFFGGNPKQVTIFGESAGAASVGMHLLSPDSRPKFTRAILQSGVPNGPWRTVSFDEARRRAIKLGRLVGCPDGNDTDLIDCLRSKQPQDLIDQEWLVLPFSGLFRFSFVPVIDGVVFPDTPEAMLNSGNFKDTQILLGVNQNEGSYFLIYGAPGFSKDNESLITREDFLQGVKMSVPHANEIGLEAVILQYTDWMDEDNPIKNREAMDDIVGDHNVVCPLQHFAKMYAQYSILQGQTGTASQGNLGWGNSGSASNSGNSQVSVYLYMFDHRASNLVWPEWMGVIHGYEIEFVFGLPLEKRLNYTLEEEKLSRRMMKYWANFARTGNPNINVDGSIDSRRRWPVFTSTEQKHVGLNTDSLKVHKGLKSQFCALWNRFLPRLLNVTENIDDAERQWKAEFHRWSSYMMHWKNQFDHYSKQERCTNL
Acetylcholinesterase (Electrophorus electricus), sequence (O42275 24-633 limits assumed): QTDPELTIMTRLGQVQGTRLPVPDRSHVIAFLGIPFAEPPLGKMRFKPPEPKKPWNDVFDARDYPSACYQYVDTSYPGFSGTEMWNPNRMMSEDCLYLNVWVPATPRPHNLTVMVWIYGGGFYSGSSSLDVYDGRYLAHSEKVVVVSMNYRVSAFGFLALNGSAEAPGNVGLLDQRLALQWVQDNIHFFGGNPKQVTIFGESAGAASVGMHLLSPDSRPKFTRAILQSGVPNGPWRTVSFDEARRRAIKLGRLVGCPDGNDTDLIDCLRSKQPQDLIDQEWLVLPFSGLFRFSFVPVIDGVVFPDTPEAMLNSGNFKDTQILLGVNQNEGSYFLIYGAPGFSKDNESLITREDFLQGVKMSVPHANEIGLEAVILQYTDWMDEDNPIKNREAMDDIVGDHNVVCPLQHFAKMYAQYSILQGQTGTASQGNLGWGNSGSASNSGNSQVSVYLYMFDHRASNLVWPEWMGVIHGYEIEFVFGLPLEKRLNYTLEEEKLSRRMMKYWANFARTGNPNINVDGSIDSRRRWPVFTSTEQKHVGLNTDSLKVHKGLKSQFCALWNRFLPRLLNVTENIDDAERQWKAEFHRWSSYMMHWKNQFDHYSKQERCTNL

Compound	inhibition [1]	IC50 (Acetylcholinesterase [2]) [nM]	IC50 (Acetylcholinesterase [3]) [nM]	Ratio IC50 [4]	Ratio IC50 [5]
OCCCCCCNc1c2c(nc3cc(Cl)ccc13)CCCC2	Active	2.47	42.4	–	–
Cc1cccc(Nc2ccccc2C(=O)NCCCC(=O)NCCCCCCCNc2c3c(nc4cc(Cl)ccc24)CCCC3)c1C	–	6.55	7.91	–	–
Cc1cccc(Nc2ccccc2C(=O)NCCC(=O)NCCCCCCCNc2c3c(nc4cc(Cl)ccc24)CCCC3)c1C	–	10	6.67	–	–
CCCCCNc1c2c(nc3cc(Cl)ccc13)CCCC2	–	43.2	26.3	< 5	–
Cc1cccc(Nc2ccccc2C(=O)NCCC(=O)NCCCCNc2c3c(nc4cc(Cl)ccc24)CCCC3)c1C	–	33	2470	–	–
CCCCCCCCNc1c2c(nc3cc(Cl)ccc13)CCCC2	–	7.95	19.6	< 5	–
Cc1cccc(Nc2ccccc2C(=O)NCCCCCCCCNc2c3c(nc4cc(Cl)ccc24)CCCC3)c1C	–	1.49	0.495	–	–
Cc1cccc(Nc2ccccc2C(=O)NCCCCCC(=O)NCCCCCCCNc2c3c(nc4cc(Cl)ccc24)CCCC3)c1C	–	13.4	11.1	–	–
CCCCCCCNc1c2c(nc3cc(Cl)ccc13)CCCC2	Active	2.03	16	3	–
Cc1cccc(Nc2ccccc2C(=O)NCCCC(=O)NCCCCCCNc2c3c(nc4cc(Cl)ccc24)CCCC3)c1C	–	15.6	41.7	–	–
CCCCCCCCCNc1c2c(nc3cc(Cl)ccc13)CCCC2	–	16.9	2.27	20	–
Cc1cccc(Nc2ccccc2C(=O)NCCCCCC(=O)NCCCCNc2c3c(nc4cc(Cl)ccc24)CCCC3)c1C	–	0.299	37.4	–	–
Cc1cccc(Nc2ccccc2C(=O)NCCCCCCCCCNc2c3c(nc4cc(Cl)ccc24)CCCC3)c1C	–	6.72	6.94	–	–
NCCCCCNc1c2c(nc3cc(Cl)ccc13)CCCC2	–	938	51	–	–
CCCCCCNc1c2c(nc3cc(Cl)ccc13)CCCC2	–	26.2	65.3	< 5	–
Cc1cccc(Nc2ccccc2C(=O)NCCCCCCCNc2c3c(nc4cc(Cl)ccc24)CCCC3)c1C	–	29.8	1380	–	–

Compound	inhibition [1]	IC50 (Acetylcholinesterase [2]) [nM]	IC50 (Acetylcholinesterase [3]) [nM]	Ratio IC50 [4]	Ratio IC50 [5]
NCCCCCCCCCCCCNc1c2c(nc3cc(Cl)ccc13)CCCC2	–	1.44	0.648	50	30
NCCCCNc1c2c(nc3cc(Cl)ccc13)CCCC2	–	65.8	38	–	–
CCCCCCCCCCNc1c2c(nc3cc(Cl)ccc13)CCCC2	–	252	5.17	10	–
OCCCCCNc1c2c(nc3cc(Cl)ccc13)CCCC2	–	1520	72.5	–	–
Cc1cccc(Nc2ccccc2C(=O)NCCCCCCCCCCNc2c3c(nc4cc(Cl)ccc24)CCCC3)c1C	–	1.85	0.776	–	–
NCCCCCCNc1c2c(nc3cc(Cl)ccc13)CCCC2	Active	7.85	11.1	–	–
NCCCCCCCCCNc1c2c(nc3cc(Cl)ccc13)CCCC2	Active	1.22	0.604	50	30
Cc1cccc(Nc2ccccc2C(=O)NCCCCCCNc2c3c(nc4cc(Cl)ccc24)CCCC3)c1C	–	1.02	7230	–	–
Cc1cccc(Nc2ccccc2C(=O)NCCCCCCCCCCCCNc2c3c(nc4cc(Cl)ccc24)CCCC3)c1C	–	16.2	2360	–	–
NCCCCCCCCCCNc1c2c(nc3cc(Cl)ccc13)CCCC2	–	2.18	0.932	50	30
NCCCCCCCNc1c2c(nc3cc(Cl)ccc13)CCCC2	–	15.1	5.37	–	–
Cc1cccc(Nc2ccccc2C(=O)NCCCC(=O)NCCCCNc2c3c(nc4cc(Cl)ccc24)CCCC3)c1C	–	12.4	13.6	–	–
Cc1cccc(Nc2ccccc2C(=O)NCCCCCC(=O)NCCCCCCNc2c3c(nc4cc(Cl)ccc24)CCCC3)c1C	–	7.39	2.94	–	–
NCCCCCCCCNc1c2c(nc3cc(Cl)ccc13)CCCC2	–	293	1.14	50	–
Cc1cccc(Nc2ccccc2C(=O)NCCC(=O)NCCCCCCNc2c3c(nc4cc(Cl)ccc24)CCCC3)c1C	–	2.96	1.14	–	–
